# Experimental data reported in US20240316087A1, “Compositions And Methods For Inducing Apoptosis In Anaerobic Cells And Related Clinical Methods For Treating Cancer And Pathogenic Infections” (priority 2017, published 2024).
# What was measured:
# [1] = test system: circulating tumor cells (CTCs); test: Salicinium induction of apoptosis in cultured circulating tumor cells from patient samples; type: cell-based, human
# Description: Circulating tumor cells (CTCs) were isolated and characterized from patients with diverse diagnoses of cancer (including a wide variety of primary cancer types, with and without metastasis) using conventional flow cytometry modified to a multiparameter flow cytometric panel employing magnetic bead separation methods to characterize CTCs and isolate them from patient blood samples. In one exemplary modified procedure for isolating and characterizing CTCs from breast cancer patients, the flow cytometry panel included CD45-PE/Cy7, CD31-RPE, pan cytokeratin-PE/Cy5, c-met-PE and MUC-1(CD227)-FITC. CTCs were identified as CD45-/CD31-/PanCK+/MUC1+and metastatic cells as CD45-/c-met+. CTC isolation and cultivation utilized PBMCs from patients isolated using ficoll centrifugation methods and incubated with EpCAM magnetic beads to isolate the CTCs.
# Isolated CTCs were cultured in serum free RPMI medium. […] Apoptosis quantification was based on observed cytoplasmic, nuclear and membrane changes diagnostic for apoptosis. In early stage of apoptosis, cells expand and become round, detach from adjacent cells or substrate and shrink. In the cytoplasm, the endoplasmic reticulum expands and turns vacuolar. In the nucleus, chromatin condenses in a crescent form around the nuclear membranes and becomes more basophilic. Eventually the nucleus fragments and cells convert to apoptotic bodies in containing fragmented nuclear and cellular materials. In vivo these apoptotic bodies are recognized and digested by phagocytes without raising inflammatory responses.
# Data were analyzed using SPSS software, and T test methodology was used to compare data sets. A significance level of p<0.05 was considered statistically significant.
# [2] = test system: alpha-N-acetylgalactosaminidase (nagalase); details: human, in vivo
# [3] = 967 patient CTC samples, helicidum 0.5 mg/ml, 24 hours
substance,measurement,setting,value
4-(beta-D-allopyranosyloxy)-benzaldehyde [Salicinium],patient CTC samples showing no detectable apoptotic activity,[1]; [3],18%
same,patient CTC samples showing statistically significant sensitivity to induction of apoptosis,[1]; [3],82%
same,CTC cells in sample undergoing apoptosis,"[1]; majority of other cancer types tested, single exposure, 24-hour test period",20-25%
same,CTC cells in sample undergoing apoptosis,"[1]; more sensitive cancer types: lung, colorectal, sarcoma and renal cancer, single dose, 24 hours",30-35%
same,median nagalase level,[2],0.78 Units
same,patients with pronounced reductions in nagalase levels,[2],83%
same,study patients with nagalase levels below 0.95 Units (normal range),[2],86%
same,study patients with nagalase levels below 1.0 units,[2],72%
